Reference: article PMC11219744, “Renal excretion of 1,2-dihydroxynaphthalene (DHN) in firefighting instructors after exposure to polycyclic aromatic hydrocarbons (PAHs) during live fire training” (Scientific Reports, 2024)
Several values for one entry are separate records, joined by “and”; a condition that tells them apart may be missing. Equal entries are not always repeated. Where two headings read alike, the source gives them in different places.

Experiments:
[1] = Human biomonitoring: urinary excretion of PAH metabolites (GC–MS/MS, creatinine-normalised) in firefighting instructors before and after live fire training; conditions: for Median increase in morning urine after exposure (sampling 9) vs. before (sampling 1) / concentration at 6 h: male, human, in vivo; for Median increase in morning urine after exposure (sampling 9) vs. before (sampling 1): 18 h; for Median increase from baseline (sample 2) to peak excretion: peak: sample 5 for 1-PYR, sample 4 otherwise; for concentration at 6 h: Concentration in urine, sampling 6, corresponding to end of shift
Procedure: All study participants (n = 6) were male firefighting instructors from Germany. […] Before the start of the study, all subjects declared that they were non-smokers. Tattoo bearers were excluded before the start of the study as tattoo ink can be a potential source of polycyclic aromatic hydrocarbons. The authors declare that this research was conducted in accordance with the relevant regulations, including the Declaration of Helsinki. All subjects gave written informed consent after being informed about the study by the investigator.
Exposure to combustion products took place in several training sessions that simulated live fire conditions by burning a defined number of uncoated chipboards in an overseas container. The container was located in a hall with exhaust air purification. […] In addition, all subjects wore long-sleeved undergarments under their turnout gear. Only laundered clothing and cleaned equipment (e.g. helmets, masks) were used. The donning and doffing of clothing and protective equipment took place only in a smoke-free, well-ventilated area. Immediately after taking off the firefighters' gloves after training, the participants put on nitrile gloves for further undressing. After removing the helmet, flash hood and SCBA face shield, the participants put on particle filtering half masks (FFP3) to remove contaminated turnout jackets and trousers. After a break for rehydration and cool down still wearing their undergarments, the participants went to shower. […] The interval between two consecutive training sessions for each subject was at least six days. […] In this way, each subject was biomonitored at each of the five training sessions. All additional (unscheduled) urinations between the predefined times were also collected in separate containers and pooled afterwards with the next scheduled sample. […] A total of 270 samples were to be collected using this procedure for all participants and five training sessions of each individual. Subjects completed a questionnaire for each sampling period to account for possible pre-exposure or concurrent exposure to PAHs from sources other than the fire simulation unit, such as occupational exposure to combustion products, exposure to tobacco smoke (active/passive) and barbecue activities, and consumption of smoked or charbroiled foods.
In brief, the analytes were extracted by liquid–liquid extraction with n-hexane after enzymatic hydrolysis of the urine samples with ß-glucuronidase/arylsulfatase (isolated from helix pomatia) and derivatised by silylation with N-trimethylsilyl-N-methyl trifluoroacetamide afterwards. […] All standards were obtained from LGC-Standards, Wesel, Germany.
DHN in urine was determined referring to a method described in detail by Klotz et al.[29]. […] External calibration with internal standardisation by an isotopically labelled analogue of the target compound was done by analysis of pool urine samples spiked with the glucuronides of DHN and D6-1,2-dihydroxynaphthalene (internal standard) before enzymatic hydrolysis. Both standards are not commercially available and were obtained as a gift from the Institute of Occupational, Social and Environmental Medicine at the University of Erlangen-Nuremberg (Germany). A detailed description of the synthesis of the compounds is given by[26]. […] Up to now, there is no external quality assessment scheme available for DHN.
Urinary creatinine was analysed in the Institute of Clinical Chemistry and Laboratory Medicine of University Medical Centre of the Johannes Gutenberg University Mainz using a photometrical assay based on the method of[30].

[2] = Time to peak and initial elimination half-life of the urinary biomarkers (first-order model, linear mixed effects); assay type: in vivo, human; conditions: for half-life: male, human, in vivo, initial elimination half-life after peak excretion, urine, read-out: Estimated half-life, mean (converted); for Time to peak, median / Time to peak, range: urinary excretion, time after onset of exposure
Text: The initial half-life of each biomarker was estimated using statistical methods described previously[6],[32]. In short, we estimated the first-order elimination rate constant λ based on the model in Eq. (1):1 C=C0+B·e^λ·t+∈
Here, C is the creatinine-adjusted concentration in urine after the uptake phase, C0 is the baseline concentration before training, B is the difference from peak to baseline concentration, t is the time since peak concentration, and ϵ is the error term. […] Using package nlme[33] for the statistical environment R[34],[35], the model was fitted as a linear mixed effects model for the log concentration difference to baseline ln(C–C0) as the outcome. The model was fitted simultaneously for all data and included fixed effects for biomarker, time since peak, and their interaction term. It used random slopes for time since peak and random intercepts for […]. Errors were assumed to be autocorrelated according to an AR(1) process.

[3] = cited from earlier work
[4] = sampling 1, morning urine on training day before exposure (mean −4.2 h from start of exposure), n = 30
[5] = sampling 1, morning urine on training day before exposure, n = 30
[6] = sampling 2, before training (mean −0.4 h), n = 28
[7] = sampling 2, before training, n = 28
[8] = sampling 3, at the end of the training session (mean 2.0 h after start of exposure), n = 26
[9] = sampling 3, at the end of the training session, n = 26
[10] = sampling 4, 1 h after the end of training (mean 3.0 h after start of exposure), n = 25
[11] = sampling 4, 1 h after the end of training, n = 25
[12] = sampling 5, 3 h after the end of training (mean 5.2 h after start of exposure), n = 22
[13] = sampling 5, 3 h after the end of training, n = 22
[14] = sampling 6, 6 h after the end of training (mean 8.1 h after start of exposure), n = 23
[15] = sampling 6, 6 h after the end of training, n = 23
[16] = sampling 7, 9 h after the end of training (mean […] after start of exposure), n = 27
[17] = sampling 7, 9 h after the end of training, n = 27
[18] = sampling 8, right before bedtime (mean 12.7 h after start of exposure), n = 27
[19] = sampling 8, right before bedtime, n = 27
[20] = sampling 9, morning urine the next day, 18 h after training (mean 20.1 h after start of exposure), n = 29
[21] = sampling 9, morning urine the next day, n = 29
[22] = 58 urine samples before onset of exposure, not creatinine-normalised

Question: Which “Median increase in morning urine after exposure (sampling 9) vs. before (sampling 1)” value [1] does the source give for `Oc1ccc2ccc3cccc4ccc1c2c34` [1-PYR, 1-hydroxypyrene] here?
Answer: 2.8 fold

Question: What about the “Median increase from baseline (sample 2) to peak excretion” value [1] of the same molecule?
Answer: 7.9 fold

Question: What about the “Maximum excretion pre exposure” value ([1]; pre exposure samplings) of the same molecule?
Answer: 0.22 µg/g creatinine

Question: And the “Concentration in urine, median” value [1, 4]?
Answer: 0.06 µg/g creatinine

Question: And the “Concentration in urine, IQR” value [1, 5]?
Answer: 0.04–0.08 µg/g creatinine

Question: What about the “Concentration in urine, range” value [1, 5] of the same molecule?
Answer: 0.03–0.15 µg/g creatinine

Question: And the “Concentration in urine, median” value [1, 6]?
Answer: 0.05 µg/g creatinine

Question: What about the “Concentration in urine, IQR” value [1, 7] of the same molecule?
Answer: 0.03–0.06 µg/g creatinine

Question: And the “Concentration in urine, median” value [1, 8]?
Answer: 0.06 µg/g creatinine

Question: And the “Concentration in urine, IQR” value [1, 9]?
Answer: 0.04–0.08 µg/g creatinine

Question: What about the “Concentration in urine, median” value [1, 10] of the same molecule?
Answer: 0.20 µg/g creatinine

Question: And the “Concentration in urine, IQR” value [1, 11]?
Answer: 0.14–0.31 µg/g creatinine

Question: What about the “Concentration in urine, range” value [1, 11] of the same molecule?
Answer: 0.06–1.61 µg/g creatinine

Question: What about the “Concentration in urine, median” value [1, 12] of the same molecule?
Answer: 0.40 µg/g creatinine

Question: What about the “Concentration in urine, IQR” value [1, 13] of the same molecule?
Answer: 0.21–0.59 µg/g creatinine

Question: What about the “Concentration in urine, range” value [1, 13] of the same molecule?
Answer: 0.16–1.88 µg/g creatinine

Question: What about the “Concentration in urine, median” value [1, 14] of the same molecule?
Answer: 0.29 µg/g creatinine

Question: What about the “Concentration in urine, IQR” value [1, 15] of the same molecule?
Answer: 0.19–0.42 µg/g creatinine

Question: What about the “Concentration in urine, range” value [1, 15] of the same molecule?
Answer: 0.10–1.93 µg/g creatinine

Question: And the “Concentration in urine, median” value [1, 16]?
Answer: 0.25 µg/g creatinine

Question: What about the “Concentration in urine, IQR” value [1, 17] of the same molecule?
Answer: 0.16–0.30 µg/g creatinine

Question: What about the “Concentration in urine, range” value [1, 17] of the same molecule?
Answer: 0.08–1.56 µg/g creatinine

Question: What about the “Concentration in urine, median” value [1, 18] of the same molecule?
Answer: 0.21 µg/g creatinine

Question: And the “Concentration in urine, IQR” value [1, 19]?
Answer: 0.12–0.33 µg/g creatinine

Question: And the “Concentration in urine, range” value [1, 19]?
Answer: 0.06–1.06 µg/g creatinine

Question: What about the “Concentration in urine, median” value [1, 20] of the same molecule?
Answer: 0.17 µg/g creatinine

Question: And the “Concentration in urine, IQR” value [1, 21]?
Answer: 0.10–0.25 µg/g creatinine

Question: What about the “Concentration in urine, range” value [1, 21] of the same molecule?
Answer: 0.05–0.63 µg/g creatinine

Question: And the half-life [2]?
Answer: 7.7 h

Question: What about the “Time to peak, median” value [2] of the same molecule?
Answer: 5.3 h

Question: What about the “Time to peak, range” value [2] of the same molecule?
Answer: 2.5 to 13.9 h

Question: What does the source list for `Oc1ccc2ccccc2c1O` [DHN, 1,2-dihydroxynaphthalene]?
Answer: Concentration in urine, median [1, 22]: 2.89 µg/L; Concentration in urine, range [1, 22]: 0.6 to 19.4 µg/L; Baseline concentration in urine, total range ([1]; before training, samplings 1 and 2 together): 0.9–10.2 µg/g crea. and 0.87–10.19 µg/g crea.; Urinary peak concentration, median (range) ([1]; firefighters after live fire training, sampling 4, n = 6, Germany): 246.7 (18.2–1084.2) µg/l; Median increase in morning urine after exposure (sampling 9) vs. before (sampling 1) [1]: 12.9 fold; concentration at 6 h ([1]; median): 71.3 ng/mL; concentration at 6 h ([1]; range): 16.6 to 674 ng/mL; Median increase from baseline (sample 2) to peak excretion [1]: 41 fold; Individual maximum concentration in urine ([1]; post exposure, sampling 4): 380.4 µg/g crea.; Concentration in urine, median [1, 4]: 2.23 µg/g creatinine; Concentration in urine, IQR [1, 5]: 1.43–4.18 µg/g creatinine; Concentration in urine, range [1, 5]: 0.87–10.19 µg/g creatinine; Concentration in urine, median [1, 6]: 3.3 µg/g creatinine and 3.32 µg/g creatinine; Concentration in urine, IQR [1, 7]: 2.03–4.80 µg/g creatinine; Concentration in urine, range [1, 7]: 1.41–9.04 µg/g creatinine; Concentration in urine, median [1, 8]: 31.60 µg/g creatinine; Concentration in urine, IQR [1, 9]: 25.79–52.81 µg/g creatinine; Concentration in urine, range [1, 9]: 10.68–166.80 µg/g creatinine; Concentration in urine, median [1, 10]: 134.2 µg/g creatinine and 134.15 µg/g creatinine; Concentration in urine, IQR [1, 11]: 92.94–164.89 µg/g creatinine; Concentration in urine, range [1, 11]: 43.38–380.43 µg/g creatinine; Concentration in urine, median [1, 12]: 131.46 µg/g creatinine; Concentration in urine, IQR [1, 13]: 104.83–207.75 µg/g creatinine; Concentration in urine, range [1, 13]: 78.66–375.77 µg/g creatinine; Concentration in urine, median [1, 14]: 86.01 µg/g creatinine; Concentration in urine, IQR [1, 15]: 67.60–137.94 µg/g creatinine; Concentration in urine, range [1, 15]: 46.21–284.21 µg/g creatinine; Concentration in urine, median [1, 16]: 51.58 µg/g creatinine; Concentration in urine, IQR [1, 17]: 40.81–76.67 µg/g creatinine; Concentration in urine, range [1, 17]: 21.95–159.57 µg/g creatinine; Concentration in urine, median [1, 18]: 46.02 µg/g creatinine; Concentration in urine, IQR [1, 19]: 30.70–63.89 µg/g creatinine; Concentration in urine, range [1, 19]: 19.82–154.82 µg/g creatinine; Concentration in urine, median [1, 20]: 27.1 µg/g creatinine and 27.08 µg/g creatinine; Concentration in urine, IQR [1, 21]: 20.03–40.28 µg/g creatinine; Concentration in urine, range [1, 21]: 15.69–139.47 µg/g creatinine; Time of peak excretion after the end of the training session ([2]; by scheduled sampling time): 1 h; Time required to reach pre exposure levels again ([2]; from median maximum 134.15 µg/g crea., about 5 half-lives, monophasic elimination assumed): approximately 33 h; half-life [2]: 6.6 h; Time to peak, median [2]: 3.3 h; Time to peak, range [2]: 2.5 to 19.0 h; Urinary level, median ([3]; 20 non-smoking subjects): 4.6 µg/L; Urinary concentration, GM (GSD) ([3]; coke oven workers, n = 28, China): 452 (2.28) µg/l; Urinary concentration, geometric mean ([3]; control group, n = 22 office and hospital workers including three smokers, China): 38.8 µg/L; Urinary concentration, median ([3]; n = 9 smokers): 17.1 µg/L; Urinary concentration, range ([3]; n = 9 smokers): 1.9 to 62 µg/L; Urinary concentration, median (range) ([3]; wood impregnation workers, n = 9, Germany): 88.3 (10.8–1497) µg/l; Urinary concentration, median (range) ([3]; workers at converter infeed, n = 26, Germany): 945.4 (22.0–1902.6) µg/l; Urinary concentration, median (range) ([3]; workers in the abrasive industry, post-shift Monday, n = 10, Germany): 3944 (114–42,066) µg/l; Urinary concentration, median (range) ([3]; workers in the abrasive industry, post-shift Thursday, n = 10, Germany): 11,162 (337–51,809) µg/l
